Converted amounts (≈) assume the structure as drawn. Like-named read-outs stand apart in the source and are kept apart here.
How the values were obtained:
SARS-CoV-2/C57MA14 = test system: SARS-CoV-2/C57MA14; parameters: species or system BALB/c mice; details: mouse, in vivo
[1] = test system: Helicobacter pylori (Hp) strain B5-3; assay: In vitro bactericidal concentration (MBC) against Helicobacter pylori, broth dilution and plate counting; details: for Bactericidal rate % / Concentration CFU/mL / Average number of colonies: shake flask about 24 hours; for Average number of colonies: dilution factor 10^−4
[2] = test system: Influenza A H3N2 virus (H3N2); format: cell-based

## O=C(O[C@@H]1Cc2c(O)cc(O)cc2O[C@@H]1c1cc(O)c(O)c(O)c1)c1cc(O)c(O)c(O)c1 [EGCG, Epigallocatechin gallate]
SARS-CoV-2/C57MA14
  mice protected from death caused by lethal dose infection: 60%
  viral nucleic acid loads in lungs and turbinates: significantly reduce
[1]; EGCG 100 μM
  Bactericidal rate %: 98.8%
  Concentration CFU/mL: 1.4 × 10^7 CFU/mL
  Average number of colonies: 142
[1]; EGCG 200 μM
  Bactericidal rate %: >99.9%
  Concentration CFU/mL: 3.5 × 10^6 CFU/mL
  Average number of colonies: 35
[1]; EGCG 400 μM
  Bactericidal rate %: >99.9%
  Concentration CFU/mL: 2.2 × 10^6 CFU/mL
  Average number of colonies: 22
[1]; Helicobacter pylori, 24 h, read-out: minimum bactericidal concentration (MBC)
  MBC: 200 µM (≈ 91.7 µg/mL)
[1]; shake flask culture, lowest concentration of 100 μM
  Hp inactivated: about 98.9%
[2]; 0.2 mM EGCG + H3N2 virus, 1 minute, first experiment, dilution factor 10^1
  CPE test, virus replication in cell wells (wells 1-10): +
[2]; 0.2 mM EGCG + H3N2 virus, 1 minute, first experiment, dilution factor 10^2
  CPE test, virus replication in cell wells (wells 1-10): +
[2]; 0.2 mM EGCG + H3N2 virus, 1 minute, first experiment, dilution factor 10^3
  CPE test, virus replication in cell wells (wells 1-10): +
[2]; 0.2 mM EGCG + H3N2 virus, 1 minute, first experiment, dilution factor 10^4
  CPE test, virus replication in cell wells (wells 1-10): +
[2]; 0.2 mM EGCG + H3N2 virus, 1 minute, first experiment, dilution factor 10^5
  CPE test, virus replication in cell wells (wells 1-10): + and −
[2]; 0.2 mM EGCG + H3N2 virus, 1 minute, first experiment, dilution factor 10^6
  CPE test, virus replication in cell wells (wells 1-10): −
[2]; 0.2 mM EGCG + H3N2 virus, 1 minute, first experiment, dilution factor 10^7
  CPE test, virus replication in cell wells (wells 1-10): −
[2]; 0.2 mM EGCG + H3N2 virus, 1 minute, first experiment, dilution factor 10^8
  CPE test, virus replication in cell wells (wells 1-10): −
[2]; 0.2 mM EGCG + H3N2 virus, 1 minute, second experiment, dilution factor 10^1
  CPE test, virus replication in cell wells (wells 1-10): +
[2]; 0.2 mM EGCG + H3N2 virus, 1 minute, second experiment, dilution factor 10^2
  CPE test, virus replication in cell wells (wells 1-10): +
[2]; 0.2 mM EGCG + H3N2 virus, 1 minute, second experiment, dilution factor 10^3
  CPE test, virus replication in cell wells (wells 1-10): +
[2]; 0.2 mM EGCG + H3N2 virus, 1 minute, second experiment, dilution factor 10^4
  CPE test, virus replication in cell wells (wells 1-10): +
[2]; 0.2 mM EGCG + H3N2 virus, 1 minute, second experiment, dilution factor 10^5
  CPE test, virus replication in cell wells (wells 1-10): + and −
[2]; 0.2 mM EGCG + H3N2 virus, 1 minute, second experiment, dilution factor 10^6
  CPE test, virus replication in cell wells (wells 1-10): −
[2]; 0.2 mM EGCG + H3N2 virus, 1 minute, second experiment, dilution factor 10^7
  CPE test, virus replication in cell wells (wells 1-10): −
[2]; 0.2 mM EGCG + H3N2 virus, 1 minute, second experiment, dilution factor 10^8
  CPE test, virus replication in cell wells (wells 1-10): −
[2]; 0.2 mM EGCG + H3N2 virus, 1 minute, third experiment, dilution factor 10^1
  CPE test, virus replication in cell wells 1-10: +
[2]; 0.2 mM EGCG + H3N2 virus, 1 minute, third experiment, dilution factor 10^2
  CPE test, virus replication in cell wells 1-10: +
[2]; 0.2 mM EGCG + H3N2 virus, 1 minute, third experiment, dilution factor 10^3
  CPE test, virus replication in cell wells 1-10: +
[2]; 0.2 mM EGCG + H3N2 virus, 1 minute, third experiment, dilution factor 10^4
  CPE test, virus replication in cell wells 1-10: +
[2]; 0.2 mM EGCG + H3N2 virus, 1 minute, third experiment, dilution factor 10^5
  CPE test, virus replication in cell wells 1-10: + and −
[2]; 0.2 mM EGCG + H3N2 virus, 1 minute, third experiment, dilution factor 10^6
  CPE test, virus replication in cell wells 1-10: −
[2]; 0.2 mM EGCG + H3N2 virus, 1 minute, third experiment, dilution factor 10^7
  CPE test, virus replication in cell wells 1-10: −
[2]; 0.2 mM EGCG + H3N2 virus, 1 minute, third experiment, dilution factor 10^8
  CPE test, virus replication in cell wells 1-10: −
[2]; 0.2 mM EGCG + H3N2 virus, 5 minute, first experiment, dilution factor 10^1
  CPE test, virus replication in cell wells 1-10: +
[2]; 0.2 mM EGCG + H3N2 virus, 5 minute, first experiment, dilution factor 10^2
  CPE test, virus replication in cell wells 1-10: +
[2]; 0.2 mM EGCG + H3N2 virus, 5 minute, first experiment, dilution factor 10^3
  CPE test, virus replication in cell wells 1-10: +
[2]; 0.2 mM EGCG + H3N2 virus, 5 minute, first experiment, dilution factor 10^4
  CPE test, virus replication in cell wells 1-10: +
[2]; 0.2 mM EGCG + H3N2 virus, 5 minute, first experiment, dilution factor 10^5
  CPE test, virus replication in cell wells 1-10: + and −
[2]; 0.2 mM EGCG + H3N2 virus, 5 minute, first experiment, dilution factor 10^6
  CPE test, virus replication in cell wells 1-10: −
[2]; 0.2 mM EGCG + H3N2 virus, 5 minute, first experiment, dilution factor 10^7
  CPE test, virus replication in cell wells 1-10: −
[2]; 0.2 mM EGCG + H3N2 virus, 5 minute, first experiment, dilution factor 10^8
  CPE test, virus replication in cell wells 1-10: −
[2]; 0.2 mM EGCG + H3N2 virus, 5 minute, second experiment, dilution factor 10^1
  CPE test, virus replication in cell wells 1-10: +
[2]; 0.2 mM EGCG + H3N2 virus, 5 minute, second experiment, dilution factor 10^2
  CPE test, virus replication in cell wells 1-10: +
[2]; 0.2 mM EGCG + H3N2 virus, 5 minute, second experiment, dilution factor 10^3
  CPE test, virus replication in cell wells 1-10: +
[2]; 0.2 mM EGCG + H3N2 virus, 5 minute, second experiment, dilution factor 10^4
  CPE test, virus replication in cell wells 1-10: +
[2]; 0.2 mM EGCG + H3N2 virus, 5 minute, second experiment, dilution factor 10^5
  CPE test, virus replication in cell wells 1-10: − and +
[2]; 0.2 mM EGCG + H3N2 virus, 5 minute, second experiment, dilution factor 10^6
  CPE test, virus replication in cell wells 1-10: −
[2]; 0.2 mM EGCG + H3N2 virus, 5 minute, second experiment, dilution factor 10^7
  CPE test, virus replication in cell wells 1-10: −
[2]; 0.2 mM EGCG + H3N2 virus, 5 minute, second experiment, dilution factor 10^8
  CPE test, virus replication in cell wells 1-10: −
[2]; 0.2 mM EGCG, H3N2 virus, 1 minute
  residual virus titer of EGCG+virus group (Karber method): 10^5 TCID50/50 μL
[2]; 0.2 mM EGCG, H3N2 virus, 1 minute, three experiments
  average inactivation efficiency against virus: 28.93%
[2]; 0.2 mM EGCG, H3N2 virus, 5 minutes, single experiment
  inactivation efficiency against the virus: 84.15%
[2]; 0.2 mM EGCG, H3N2 virus, 5 minutes, two experiments
  average inactivation efficiency against virus: 76.27%
[2]; 1 mM EGCG + H3N2 virus, 1 minute, first experiment, dilution factor 10^2
  CPE test, virus replication in cell wells (wells 1-10): +
[2]; 1 mM EGCG + H3N2 virus, 1 minute, first experiment, dilution factor 10^3
  CPE test, virus replication in cell wells (wells 1-10): +
[2]; 1 mM EGCG + H3N2 virus, 1 minute, first experiment, dilution factor 10^4
  CPE test, virus replication in cell wells (wells 1-10): +
[2]; 1 mM EGCG + H3N2 virus, 1 minute, first experiment, dilution factor 10^5
  CPE test, virus replication in cell wells (wells 1-10): + and −
[2]; 1 mM EGCG + H3N2 virus, 1 minute, first experiment, dilution factor 10^6
  CPE test, virus replication in cell wells (wells 1-10): −
[2]; 1 mM EGCG + H3N2 virus, 1 minute, first experiment, dilution factor 10^7
  CPE test, virus replication in cell wells (wells 1-10): −

— patent US20240238242A1, “EGCG buccal tablet and use thereof” (priority 2023, published 2024)
